{
  "source": "ChEMBL document CHEMBL2417393",
  "about": "“Structure guided optimization of a fragment hit to imidazopyridine inhibitors of PI3K” (Bioorg Med Chem Lett, 2013)",
  "key": {"[1]": {"experiment": "Half life in rat microsomes", "type": "ADME, Microsome"}, "[2]": {"experiment": "Clearance in rat microsomes", "type": "ADME, Microsome"}, "[3]": {"experiment": "Apparent permeability from basolateral to apical side in human Caco2 cells", "type": "ADME, cell-based", "settings": "Caco-2"}, "[4]": {"experiment": "Apparent permeability from apical to basolateral side in human Caco2 cells", "type": "ADME, cell-based", "settings": "Caco-2"}, "[5]": {"experiment": "Cmax in rat at 10 mg/kg, po", "type": "ADME, organism-based", "parameters": "dose 10 mg/kg, route oral", "settings": "in vivo"}, "[6]": {"experiment": "AUC in rat at 10 mg/kg, po", "type": "ADME, organism-based", "parameters": "dose 10 mg/kg, route oral", "settings": "plasma"}, "[7]": {"experiment": "Solubility of the compound in PBS buffer at pH 7.4", "type": "physicochemical"}, "[8]": {"experiment": "Lipophilicity, log D of the compound at pH 7.4", "type": "physicochemical", "settings": "buffer"}, "[9]": {"experiment": "Bioavailability in rat at 5 mg/kg, iv", "type": "ADME, organism-based", "settings": "in vivo"}, "[10]": {"experiment": "Half life in rat at 5 mg/kg, iv", "type": "ADME, organism-based", "parameters": "dose 5 mg/kg, route intravenous", "settings": "in vivo"}, "[11]": {"experiment": "Clearance in rat at 5 mg/kg, iv", "type": "ADME, organism-based", "parameters": "dose 5 mg/kg, route intravenous", "settings": "in vivo"}, "[12]": {"experiment": "Volume of distribution at steady state in rat at 5 mg/kg, iv", "type": "ADME, organism-based", "parameters": "dose 5 mg/kg, route intravenous", "settings": "in vivo, read-out: Vdss"}},
  "data": [
    {"smiles": "CC(=O)Nc1nc2ccc(-c3cnc(N)c(C(F)(F)F)c3)cc2s1", "values": [
      {"measurement": "half-life", "setting": "[1]", "result": 778, "unit": "min"},
      {"measurement": "clearance", "setting": "[2]", "result": 8, "unit": "µL/min/mg"},
      {"measurement": "Papp B→A", "setting": "[3]", "result": 13, "unit": "×10⁻⁶ cm/s"},
      {"measurement": "Papp A→B", "setting": "[4]", "result": 16, "unit": "×10⁻⁶ cm/s"},
      {"measurement": "Cmax", "setting": "[5]", "result": 2900, "unit": "nM"},
      {"measurement": "AUC", "setting": "[6]", "result": 18, "unit": "µM·h"},
      {"measurement": "solubility", "setting": "[7]", "result": 1.5, "unit": "µM"}
    ]},
    {"smiles": "CC(=O)Nc1ncc2cc(-c3cnc(N)c(C(F)(F)F)c3)ccc2n1", "values": [
      {"measurement": "solubility", "setting": "[7]", "result": 0.5, "unit": "µM"}
    ]},
    {"smiles": "COC(=O)c1ccc2nc(NC(C)=O)sc2c1", "values": [
      {"measurement": "logD", "setting": "[8]", "result": 1.5}
    ]},
    {"smiles": "CC(=O)Nc1nc2ccc(-c3cnc(N)c(C(F)(F)F)c3)cc2o1", "values": [
      {"measurement": "solubility", "setting": "[7]", "result": 1.3, "unit": "µM"}
    ]},
    {"smiles": "CC(=O)Nc1nc2ccc(-c3ccc(N)nc3)cc2s1", "values": [
      {"measurement": "half-life", "setting": "[1]", "result": 187, "unit": "min"},
      {"measurement": "clearance", "setting": "[2]", "result": 4, "unit": "µL/min/mg"},
      {"measurement": "Papp B→A", "setting": "[3]", "result": 42, "unit": "×10⁻⁶ cm/s"},
      {"measurement": "Papp A→B", "setting": "[4]", "result": 46, "unit": "×10⁻⁶ cm/s"},
      {"measurement": "Cmax", "setting": "[5]", "result": 2500, "unit": "nM"},
      {"measurement": "AUC", "setting": "[6]", "result": 16, "unit": "µM·h"},
      {"measurement": "bioavailability", "setting": "[9]", "result": 57, "unit": "%"},
      {"measurement": "half-life", "setting": "[10]", "result": 150, "unit": "min"},
      {"measurement": "clearance", "setting": "[11]", "result": 19, "unit": "mL/min/kg"},
      {"measurement": "Vd", "setting": "[12]", "result": 3.6, "unit": "L/kg"},
      {"measurement": "solubility", "setting": "[7]", "result": 4.2, "unit": "µM"}
    ]},
    {"smiles": "Nc1ccc(-c2ccc3nc(NC(=O)CN4CCCCC4)sc3c2)cn1", "values": [
      {"measurement": "solubility", "setting": "[7]", "result": 7.1, "unit": "µM"}
    ]},
    {"smiles": "Nc1ccc(-c2ccc3nc(NC(=O)CCCN4CCCCC4)sc3c2)cn1", "values": [
      {"measurement": "solubility", "setting": "[7]", "result": 28, "unit": "µM"}
    ]},
    {"smiles": "CC(=O)Nc1cn2cc(-c3cnc(N)c(C(F)(F)F)c3)cnc2n1", "values": [
      {"measurement": "solubility", "setting": "[7]", "result": 4.8, "unit": "µM"}
    ]},
    {"smiles": "COc1cc(-c2ccc3nc(NC(C)=O)sc3c2)cnc1N", "values": [
      {"measurement": "Papp B→A", "setting": "[3]", "result": 18, "unit": "×10⁻⁶ cm/s"},
      {"measurement": "Papp A→B", "setting": "[4]", "result": 6.7, "unit": "×10⁻⁶ cm/s"}
    ]},
    {"smiles": "CC(=O)Nc1cn2cc(-c3cnc(N)c(C(F)(F)F)c3)ncc2n1", "values": [
      {"measurement": "solubility", "setting": "[7]", "result": 1, "unit": "µM"}
    ]},
    {"smiles": "CC(=O)Nc1cn2cc(-c3cnc(N)c(C(F)(F)F)c3)ccc2n1", "values": [
      {"measurement": "half-life", "setting": "[1]", "result": 778, "unit": "min"},
      {"measurement": "clearance", "setting": "[2]", "result": 8, "unit": "µL/min/mg"},
      {"measurement": "Papp B→A", "setting": "[3]", "result": 40, "unit": "×10⁻⁶ cm/s"},
      {"measurement": "Papp A→B", "setting": "[4]", "result": 40, "unit": "×10⁻⁶ cm/s"},
      {"measurement": "Cmax", "setting": "[5]", "result": 15700, "unit": "nM"},
      {"measurement": "AUC", "setting": "[6]", "result": 198, "unit": "µM·h"},
      {"measurement": "bioavailability", "setting": "[9]", "result": 95, "unit": "%"},
      {"measurement": "half-life", "setting": "[10]", "result": 180, "unit": "min"},
      {"measurement": "clearance", "setting": "[11]", "result": 2, "unit": "mL/min/kg"},
      {"measurement": "Vd", "setting": "[12]", "result": 0.68, "unit": "L/kg"}
    ]},
    {"smiles": "Nc1ncc(-c2ccc3nc(NC(=O)CCCN4CCCCC4)sc3c2)cc1C(F)(F)F", "values": [
      {"measurement": "solubility", "setting": "[7]", "result": 56, "unit": "µM"}
    ]},
    {"smiles": "Nc1ncc(-c2ccc3nc(NC(=O)CCCN4CCOCC4)sc3c2)cc1C(F)(F)F", "values": [
      {"measurement": "solubility", "setting": "[7]", "result": 8.3, "unit": "µM"}
    ]},
    {"smiles": "CC(=O)Nc1nc2ccc(-c3cnc(N)c(C(F)(F)F)c3)cc2n1C", "values": [
      {"measurement": "solubility", "setting": "[7]", "result": 25, "unit": "µM"}
    ]}
  ]
}
